According to US12091684B2, “Platelet-derived mitochondria treatment and method of generating multipotent cells” (Hackensack Meridian Health, Inc., priority 2020, dated 2024):

Legend:
CXCR4 = CXCR4 (Homo sapiens, UniProt P61073); conditions: 30 μM, 4 hours, purified PB-IPC nuclei with labeled mitochondria
Description: To determine whether the action of SDF-1/CXCR4 contributed to the penetration of mitochondria into nuclei, a blocking experiment with CXCR4 receptor antagonist AMD3100 was performed. The purified PB-IPC's nuclei were treated with MitoTracker Deep Red-labeled purified mitochondria in the presence or absence of AMD 3100 (30 μM). The equal concentration of solvent DMSO served as a control. After 4 hours of the treatment, nuclei were washed twice with PBS and prepared for flow cytometry.

γ-secretase = test: DAPT-blocking experiment (CD34 expression by flow cytometry); type: cell-based, human; conditions: PB-IPCs, 10 μM DAPT, 100 μg/mL mitochondria where present, 7-14 days, n=4
Description: For a DAPT-blocking experiment, PB-IPCs were treated with 100 μg/mL mitochondria plus 10 μM DAPT (Sigma, Saint Louis, MO, USA, Catalog #D5942) for 7-14 days in non-tissue, culture-treated 24-well plates or Petri dishes with serum-free NutriStem® hPSC XF culture medium (Corning, New York, NY, USA), at 37° C. and 8% CO2. Subsequently, both treated and untreated PB-IPC were collected to examine the expression of CD34 by flow cytometry.

Chain of CXCR4 (P61073 whole entry): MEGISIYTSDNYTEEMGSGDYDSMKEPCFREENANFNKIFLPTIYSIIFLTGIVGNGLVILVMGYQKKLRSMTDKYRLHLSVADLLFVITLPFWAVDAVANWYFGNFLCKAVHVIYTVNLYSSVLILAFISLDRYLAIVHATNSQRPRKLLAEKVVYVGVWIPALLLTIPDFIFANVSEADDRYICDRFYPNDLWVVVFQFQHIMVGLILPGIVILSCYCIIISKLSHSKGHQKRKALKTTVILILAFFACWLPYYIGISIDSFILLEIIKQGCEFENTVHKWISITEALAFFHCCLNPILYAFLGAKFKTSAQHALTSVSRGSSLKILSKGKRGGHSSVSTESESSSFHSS

percentage of MitoTracker Deep Red-positive nuclei (CXCR4) | SMILES | percentage of CD34+ cells (γ-secretase)
markedly reduced | c1cc(CN2CCCNCCNCCCNCC2)ccc1CN1CCCNCCNCCCNCC1 [AMD 3100] | –
– | C[C@H](NC(=O)Cc1cc(F)cc(F)c1)C(=O)N[C@H](C(=O)OC(C)(C)C)c1ccccc1 [DAPT, N—[N-(3,5-difluorophenacetyl)-L-alanyl]-S-phenylglycine t-butyl ester] | 2.59%±0.13%
